Square brackets hold non-standard residues; d marks the D form. Peptide text beside a SMILES is read from it. * marks the point of attachment. FITC = O=C1OC2(c3ccc(O)cc3Oc3cc(O)ccc32)c2ccc(NC(=S)*)cc21; Tyr(3-I) = N[C@@H](Cc1ccc(O)c(I)c1)C(=O)O
Columns and labels:
HCC36 cells [1] = test: Specific retention of probe via flow cytometry; format: cell-based, Human; conditions: control HCC36 cells, 10 μM probe 1 h, washed three times per hour, 8 h
Description: (§1) We also used the WT probe (GRKKRRQRRR-[…]-LKKKYK-FITC) and the scrambled sequence probe (GRKKRRQRRR-[…]-LKKKYK) that could not be activated by protease as a control group to test the specific retention of probe via flow cytometry. HCC36 cells, NS3/4A-HCC36 cells, or JFH-1-infected HCC36 cells were incubated with 10 μM TAT-ΔNS3/4A-FITC or 10 μM TAT-scrambled NS3/4A-FITC in the absence or presence of 2 μM telaprevir (NS3/4A protease inhibitor) at 37 °C for 1 h. The cells were washed with DMEM containing 10% serum three times per hour. After culturing for 1 or 8 h, the fluorescence of viable cells was observed via flow cytometry.
(§2) Supplementary file Image_5.TIF: Supplementary Figure 5 To evaluate the specific retention of probe via flow cytometry, we used the WT probe (GRKKRRQRRR-[…]-LKKKYK-FITC) and the scrambled sequence probe (GRKKRRQRRR-[…]-LKKKYK) that could not be activated by protease as a control group to test the specific retention of probe via flow cytometry. HCC36 cells, NS3/4A-HCC36 cells, or JFH-1-infected HCC36 cells were incubated with 10 μM TAT-ΔNS3/4A-FITC or 10 μM TAT-scrambled NS3/4A-FITC in the absence or presence of 2 μM telaprevir (NS3/4A protease inhibitor) at 37°C for 1 h. The cells were washed with DMEM containing 10% serum three times per hour. After culturing for 1 or 8 h, the fluorescence of viable cells was observed via flow cytometry. Click here for additional data file.

[2] = tested on: JFH-1-infected HCC36 cells; test: Specific retention of probe via flow cytometry; format: cell-based, Human; conditions: 10 μM probe 1 h, washed three times per hour, 8 h
Description: as §1, §2

NS3/4A-HCC36 cells [3] = test: Specific retention of probe via flow cytometry; format: cell-based, Human; conditions: 10 μM probe 1 h, washed three times per hour, 8 h
Description: as §1, §2

HCC36 cells [4] = test: Cellular retention of radioactivity of TAT-ΔNS3/4A-124I-FITC, gamma-counter; format: cell-based, Human; conditions: control HCC36 cells, 37 kBq probe 37°C 1 h, cultured 0, 4, 6, 8 h with washing, CPM normalized by protein
Description: (§3) HCC36 or NS3/4A-HCC36 (1 × 10^5) cells were seeded with DMEM containing 10% serum in a 24-well plate at 37°C in a CO2 incubator overnight. The cells were incubated with 37 kBq of TAT-ΔNS3/4A-^124I-FITC in the presence or absence of 2 μM telaprevir (Vertex, Cambridge MA) at 37°C for 1 h. After probe staining, the cells were washed using DMEM containing 10% serum per 20 min until the end of the experiment. At different time points, the cells were collected by treatment with trypsin. The radioactivity of the cells was then measured using a gamma-counter. The CPM was normalized by protein concentration.
(§4) FIGURE 4 Specificity and half-life of TAT-ΔNS3/4A-^124I-FITC. (A) NS3/4A-HCC36 and HCC36 cells were incubated with 37 kBq of TAT-ΔNS3/4A-^124I-FITC in the presence or absence of 2 μM Telaprevir at 37°C for 1 h. The cells were washed with DMEM containing 10% serum three times per hour. The cells were collected by treatment with trypsin at the indicated times. The radioactivity of the cells was then measured with a gamma-counter. The CPM was normalized by protein concentration. […] Error bar: standard error of triplicate determinations.

NS3/4A-HCC36 cells [5] = test: as above; format: cell-based, Human
Description: as §3, §4

[6] = Blood kinetics (half-life) of TAT-ΔNS3/4A-124I-FITC in mice; set-up: species or system BALB/c nude mice; conditions: mouse, in vivo, iv, 3700 kBq; BALB/c mice, i.v., 4 h after injection, gamma-counter; read-out: radioactivity in the blood
Text: BALB/c nude mice (n = 3) were intravenously injected with 3,700 kBq TAT-ΔNS3/4A-^124I-FITC, and blood samples were periodically removed from the tail vein of the mice. The blood was weighed on an analytical balance and assayed for radioactivity in a multichannel gamma-counter. The initial and terminal half-life of the probe was estimated by fitting the data to a two-phase exponential decay model with Prism 4 software (GraphPad Software, San Diego, CA, USA).
as §4

[7] = tested on: NS3/4A-HCC36 and HCC36 tumors; test: Micro-PET imaging of NS3/4A activity in xenograft mice (ROI analysis); format: in vivo, BALB/c nude mice; conditions: 6 h, n = 3
Description: BALB/c nude mice (n = 3) bearing established HCC36 and NS3/4A-HCC36 (100–200 mm^3) in their right and left hind leg, respectively, were anesthetized by halothane vapor with a vaporizer system. The mice were feed the Lugol’s solution and then intravenously injected with 3,700 kBq (in 100 μL) TAT-ΔNS3/4A-^124I-FITC. PET imaging was sequentially performed at 2, 4, and 6 h. To test the specificity of TAT-ΔNS3/4A-^124I-FITC, telaprevir (20 mg/kg/day for 3 days) or control vehicle was intraperitoneally injected into mice (n = 3) 3 days prior to TAT-ΔNS3/4A-^124I-FITC.
The mice were positioned in a micro-PET scanner (R4; Concorde Microsystems, Knoxville, Tenn) with their long axis parallel to the transaxial plane of the scanner. The scanner has a computer-controlled bed with a 10.8-cm transaxial and 8-cm axial field of view. It has no septa and operates exclusively in a three-dimensional list mode. All raw data were first sorted into three-dimensional sinograms, followed by Fourier rebinning and ordered-subsets expectation maximization image reconstruction. Fully three-dimensional list-mode data were collected by using an energy window of 350–750 keV and a time window of 6 nsec. Image pixel size was 0.85 mm transaxially, with a 1.21-mm section thickness. The region of interest was analyzed with ASIPro VM version 5.0 (Concorde Microsystems, Knoxville, TN, USA) analysis software. […]

[8] = tested on: NS3/4A-HCC36 and HCC36 tumors; test: Biodistribution in xenograft mice, gamma-counter; format: in vivo, BALB/c nude mice
Description: (§5) In xenograft model, BALB/c nude mice bearing established NS3/4A-HCC36 and HCC36 tumors (n = 3) were intravenously injected with 3,700 kBq (in 100 μL) TAT-ΔNS3/4A-^124I-FITC. In orthotopic model, SCID mice (n = 3) with NS3/4A-HCC36 or HCC36 tumors implanted in the liver were intravenously also injected with 3,700 kBq (in 100 μL) TAT-ΔNS3/4A-^124I-FITC. Animals were killed after anesthesia with pentobarbital (65 mg/kg) at 2, 4, and 6 h. Radioactivity in isolated tumors and tissues was measured with a multichannel gamma-counter. The biodistribution of the probe was expressed as percentage injected dose per gram of tissue (%ID/g).
FIGURE 6 Biodistribution of TAT-ΔNS3/4A-^124I-FITC in xenograft mice. Mice bearing established NS3/4A-HCC36 and HCC36 tumors were injected with 3,700 kBq of TAT-ΔNS3/4A-^124I-FITC. Selected organs and tumors were removed from the mice after 2 (white column), 4 (black column), and 6 (gray column) h. The radioactivity of individual organs was measured using a gamma-counter and normalized for sample weights. The biodistribution of TAT-ΔNS3/4A-^124I-FITC in selected organs was expressed as percentage injected dose/g tissue. Data represent mean ± SEM.

[9] = tested on: liver-implanted NS3/4A-HCC36 or HCC36 tumors; test: Micro-PET imaging in orthotopic liver implantation tumor model (ROI analysis); format: in vivo; conditions: SCID mice n = 3, i.v. 3,700 kBq, micro-PET 4 h
Text: The orthotopic liver implantation model was generated as previously described ([Kim et al., 2009]). The NS3/4A-HCC36 tumors or HCC36 tumors from the ectopic tumors were harvested and transplanted into the left liver lobe of SCID mice (n = 3). After 2 weeks, the mice were feed the Lugol’s solution, and then, the 3,700 kBq of TAT-ΔNS3/4A-^124I-FITC was intravenously injected.
The mice were positioned in a micro-PET scanner (R4; Concorde Microsystems, Knoxville, Tenn) with their long axis parallel to the transaxial plane of the scanner. The scanner has a computer-controlled bed with a 10.8-cm transaxial and 8-cm axial field of view. It has no septa and operates exclusively in a three-dimensional list mode. All raw data were first sorted into three-dimensional sinograms, followed by Fourier rebinning and ordered-subsets expectation maximization image reconstruction. Fully three-dimensional list-mode data were collected by using an energy window of 350–750 keV and a time window of 6 nsec. […] The region of interest was analyzed with ASIPro VM version 5.0 (Concorde Microsystems, Knoxville, TN, USA) analysis software.
FIGURE 7 Micro-PET Imaging of NS3/4A activity in orthotopic liver implantation model. […] (B) The accumulation of radioactivity in NS3/4A-HCC36 tumors and HCC36 tumors was measured using a gamma-counter at 2 (white column), 4 (black column), and 6 (gray column) h after probe injection. […]

[10] = tested on: liver-implanted NS3/4A-HCC36 or HCC36 tumors; test: Radioactivity of liver-implanted tumors, gamma-counter; format: in vivo, SCID mice; conditions: orthotopic liver model, i.v. 3,700 kBq, 6 h
Description: as §5
FIGURE 7 Micro-PET Imaging of NS3/4A activity in orthotopic liver implantation model. The NS3/4A-HCC36 tumors or HCC36 tumors from the ectopic tumors were harvested and transplanted into the left liver lobe of SCID mice (n = 3). After 2 weeks, the 3,700 kBq of TAT-ΔNS3/4A-^124I-FITC was intravenously injected. (A) PET imaging was performed at 4 h after injection of the probe. (B) The accumulation of radioactivity in NS3/4A-HCC36 tumors and HCC36 tumors was measured using a gamma-counter at 2 (white column), 4 (black column), and 6 (gray column) h after probe injection. Data represent mean ± SEM. Student’s t-test analysis of data. Statistical analysis was compared NS3/4A-HCC36 with HCC36. P < 0.05 was considered statistically significant.

[11] = Long-term biodistribution in xenograft mice; format: in vivo; conditions: i.v. 3,700 kBq, gamma-counter
Description: Supplementary file Image_4.TIF: Supplementary Figure 4 Long-term biodistribution of TAT-ΔNS3/4A-^124I-FITC in xenograft mice. Mice were injected with 3,700 kBq of TAT-ΔNS3/4A-^124I-FITC. Selected organs and tumors were removed from the mice after 4, 12, and 24 h. The radioactivity of individual organs was measured using a gamma-counter and normalized for sample weights. The biodistribution of TAT-ΔNS3/4A-^124I-FITC in selected organs was expressed as percentage injected dose/g tissue. Data represent mean ± SEM. Click here for additional data file.

Row | Molecule | fluorescence retention after culturing for 8 h (HCC36 cells [1]) | fluorescence retention after culturing for 8 h [2] | fluorescence retention after culturing for 8 h (NS3/4A-HCC36 cells [3]) | radioactivity retained in the cells (HCC36 cells [4]) | radioactivity retained in the cells (NS3/4A-HCC36 cells [5]; 37 kBq probe 37°C 1 h, cultured 0, 4, 6, 8 h with washing, CPM normalized by protein) | radioactivity retained in the cells after inhibitor treatment (NS3/4A-HCC36 cells [5]; 37 kBq probe + 2 μM telaprevir) | tissue uptake at 4 h [6] | ROI radioactivity, NS3/4A-HCC36 tumors vs HCC36 tumors ([7]; i.v. 3,700 kBq) | ROI radioactivity, NS3/4A-HCC36 tumors vs HCC36 tumors, after inhibitor treatment ([7]; telaprevir 20 mg/kg/day i.p. for 3 days before probe) | radioactivity in normal organs (stomach, kidneys) ([8]; i.v. 3,700 kBq, 2, 4, 6 h) | accumulation of radioactivity, NS3/4A-HCC36 tumors vs HCC36 tumors ([8]; i.v. 3,700 kBq, 6 h, %ID/g, n = 3) | ROI, implanted NS3/4A-HCC36 tumors vs HCC36 tumors [9] | uptake of radioactivity, implanted NS3/4A-HCC36 tumors vs implanted HCC36 tumors [10] | radioactivity in tissues at 24 h ([11]; 24 h) | long-term accumulation of probe in kidney (and stomach) ([11]; organs at 4, 12, 24 h)
1 | GRKKRRQRRR-ECEEEEESMDDDAH-LKKKYK [scrambled sequence probe] | cannot be accumulated in each cell | cannot be accumulated in each cell | cannot be accumulated in each cell | – | – | – | – | – | – | – | – | – | – | – | –
2 | CSCC[C@H](NC(=O)[C@H](CCC(=O)O)NC(=O)[C@H](CC(=O)O)NC(=O)[C@H](CCC(=O)O)NC(=O)[C@H](CC(=O)O)NC(=O)[C@H](CCC(=O)O)NC(=O)[C@H](CC(=O)O)NC(=O)[C@H](CCC(=O)O)NC(=O)[C@H](CC(=O)O)NC(=O)[C@H](CCCNC(=N)N)NC(=O)[C@H](CCCNC(=N)N)NC(=O)[C@H](CCCNC(=N)N)NC(=O)[C@H](CCC(N)=O)NC(=O)[C@H](CCCNC(=N)N)NC(=O)[C@H](CCCNC(=N)N)NC(=O)[C@H](CCCCN)NC(=O)[C@H](CCCCN)NC(=O)[C@H](CCCNC(=N)N)NC(=O)CN)C(=O)N[C@@H](CCC(=O)O)C(=O)N[C@@H](CCC(=O)O)C(=O)N[C@@H](CS)C(=O)N[C@@H](C)C(=O)N[C@@H](CO)C(=O)N[C@@H](Cc1c[nH]cn1)C(=O)N[C@@H](CC(C)C)C(=O)N[C@@H](CCCCN)C(=O)N[C@@H](CCCCN)C(=O)N[C@@H](CCCCN)C(=O)N[C@@H](Cc1ccc(O)c(I)c1)C(=O)N[C@@H](CCCCNC(=S)Nc1ccc2c(c1)C(=O)OC21c2ccc(O)cc2Oc2cc(O)ccc21)C(=O)O [TAT-ΔNS3/4A-^124I-FITC] (H-GRKKRRQRRRDEDEDEDEMEECASHLKKK[Tyr(3-I)]K(FITC)-OH; N-terminus and C-terminus assumed) | – | – | – | not in control HCC36 cells | A high level of radioactivity was detected | radioactivity did not accumulate | 2.6 ± 0.1 %ID/g | 2.53 fold | 1.31 fold | high levels of radioactivity were observed in the stomach and kidneys | 2.7 fold | 4.75 fold | 3.1 fold | did not accumulate in the all of tissues at 24 h | accumulation of probe in kidney and in stomach would quickly reduce at 12 and 24 h
